Measurements reported in the pKa sets of Baltruschat and Czodrowski (2020).
“And” between values parts separate entries of the source, which are not always exact repeats. Equal values may be shown once.

SMILES | pKa (acidic group) | pKa (basic group)
Cn1cnc2c(O)[nH+]c(N)nc21 | 3.07 | –
CC(C)c1cc(O)c(=O)ccc1Br | 6.53 | –
CC(N)=S | – | -2.51
C/C(N=O)=N\O | 5.8 | –
Cc1csc(-c2ccc(NS(=O)(=O)c3ccc(N)cc3)cc2)n1 | 8.5 | –
[NH3+]CC/C=C/C(=O)O | 3.83 | –
CCCC/C=[N+](\[O-])O | 4.5 | –
O=S(Cc1ccccc1)c1ncc[nH]1 (centres undefined) | 9.8 | –
O=C1C=CC(=Nc2ccc(O)cc2)C=C1 | 8.1 | –
O=Cc1ccc(O)c(O)c1 | 7.45 | –
CN(C)CCCCCNC(=O)/C=N/[O-] | – | 10.3
COc1cc(S(C)=O)ccc1-c1nc2[nH]ncc2[nH]1 (centres undefined) | 12 | 3.8
Nc1ccc(-c2cnc(-c3ccccc3)o2)cc1 | – | 3.68
Nc1cccc2c1ccc1ncccc12 | – | 5.2
COC(=O)c1cccc(NC=S)c1 | 10.8 | –
O=P1(O)CCCCC1 | 2.73 | –
Cc1ccc(C(=O)O)cc1Cl | 4.06 | –
CCCCCCc1c(-c2ccccc2)n[nH]c1O | 8.6 | –
[NH3+][C@@H](Cn1cccn1)C(=O)O | 2.2 | –
Nc1ccc([N+](=O)[O-])c(F)c1 | – | -0.3
CC1CN=C(C(C)(C)C)S1 (centres undefined) | – | 5.02
ONc1cc[n+](O)c2ccccc12 | 3.89 | –
COc1cc2c(OC)ncnc2c(OC)c1OC | – | 3.34
NCC(=O)Nc1ccc([N+](=O)[O-])cc1 | – | 8.5
[O-]c1nc([O-])c2[nH]cnc2n1 | – | 11.1

SMILES | pKa (acidic group) | pKa (basic group)
CCC(=O)c1ccccc1 | – | 17.6
CN1CCC2=C(C1)C(c1ccccc1)c1ccccc12 (centres undefined) | – | 8.29
Nc1nc(O)cc[nH+]1 | 4.01 | –
COc1ccc([N+](=O)[O-])cc1C(=O)N[C@@H]1C[C@H]2CC[C@@H](C1)N2Cc1ccccc1 | – | 8.7
Cc1ccc(=O)c(O)c(Br)c1 | 6.41 | –
O=C(O)C1CC1 | 4.83 | –
C=CCC1(C2=CCCCC2)C(=O)[N-]C(=S)NC1=O | 11.7 | –
N#C/C(=C\C(=O)O)c1ccccc1 | 3.07 | –
[S-]c1cnc2cncnc2n1 | – | 5.5
CC(=O)n1ccnc1C | – | 5.03
O=C(O)CSCc1ccccc1 | 3.73 | –
CCc1cc(-c2ccccc2)nnc1NCCN1CCOCC1 | – | 7.08
OC(c1ccncc1)(c1ccncc1)c1cccnc1 | 11.9 | –
O=C1CCc2cc(I)ccc2C1 | 12.4 | –
C=CC(Cl)C(=O)O (centres undefined) | 2.54 | –
Cn1c[nH+]c2cc(N)ccc21 | – | 3.09
CC(C)=NNS(C)(=O)=O | 8.5 | –
Cc1nc2cc([N+](=O)[O-])ccc2[nH]1 | – | 5.16
C[NH2+]CCCN | – | 8.66
O=C1NC(=O)/C(=C/c2ccccc2)N1 | 8.6 | –
[O-]c1ccc(O)c2ccccc12 | – | 11
CCC(=O)CC(=O)CC | 9.82 | –
C1CCN(CCN2CCCC2)C1 | – | 9.47
O=[N+]([O-])c1ccc([O-])c(CN2CCOCCOCCOCCOCC2)c1 | – | 9.69
CN1CCC[NH+](C)Cc2ccccc2OCCOc2ccccc2C1 | – | 7.92

SMILES | pKa (acidic group) | pKa (basic group)
CCCCNCc1ccccc1 | – | 9.46
C[NH+]1CCn2c(nc3ccccc32)C1 | – | 2.55
CCN(CC)CCCNC(=O)/C=N/[O-] | – | 10.3
N#Cc1ccccc1N | – | 0.95
N#CC(C#N)=NNc1ccccc1C(=O)O | 6.7 | -0.96
NC(Cc1ccncc1)C(=O)[O-] (centres undefined) | – | 9.22
CCC(=O)NBr | 8.2 | –
CCOC(=O)c1cccc(O)c1 | 9.05 | –
CCC(C)(N)CC | – | 10.9
Oc1ccc2cccnc2c1 | 8.85 | 5.48
Cn1ncnc1/N=N/O | 4.45 | –
CCCN(CCO)CC(C)O (centres undefined) | – | 8.9
CO[n+]1ccc(O)cc1 | 2.57 | –
c1c[nH]c(P(c2ncc[nH]2)c2ncc[nH]2)n1 | – | 7.44
CC(I)[N+](=O)[O-] (centres undefined) | 7.24 | –
Nc1cc[n+]([O-])cc1 | – | 3.61
Cc1cccc(Br)c1C(=O)O | 2.71 | –
O=C(c1ccccc1)N(O)c1ccccc1 | 7.87 | -2.08
CN(C)Cc1cc(CC(C)(C)C)ccc1O | 11.5 | –
Oc1ccc(/N=N/c2ccccc2)cc1 | 8.44 | –
NC(N)=O | – | 0.4
Cc1cnc2ccccc2n1 | – | 0.95
Cc1ccnc([S-])n1 | – | 8
CCC(CC)C1(CC)C(=O)NC(=S)NC1=O | 7.46 | –
Cc1cc([O-])[n+](C)c([O-])n1 | – | 10.1

SMILES | pKa (acidic group) | pKa (basic group)
O/N=C\C=C\c1ccccc1 | 10.9 | –
CC(=O)CC(=O)C(F)(F)F | 6.09 | –
CCCCN(CCCC)c1nnc(-c2ccccc2)cc1C | – | 4.88
NCCc1ccncc1 | – | 9.37
CCOCCn1c(CN2CCCN(CCCCn3cccn3)CC2)nc2ccccc21 | – | 9.2
CCCCNCc1ccc(C)cc1 | – | 9.98
N/C(=N\O)C([NH3+])c1ccccc1 (centres undefined) | – | 2.3
CC[NH+](CC)Cc1c(O)cccc1Cl | 7.5 | –
Cc1ncc2c(c1O)C(=O)OC2 | 7.05 | –
[O-]c1nccc2cccnc12 | – | 12
C[N+](C)(C)CCOC(=O)/C=C/c1c[nH]cn1 | – | 4.6
COc1cccc([N+](=O)[O-])c1O | 6.74 | –
CC(O)CN(C)CCO (centres undefined) | – | 8.69
c1ccc2c(c1)[NH+]=C(c1ccncc1)[NH2+]2 | – | 1.96
CC(=O)C1=CC=CC1 | 8.84 | –
NC(=S)NCc1ccccc1 | – | 0.86
ClCC1CN2CCC1CC2 (centres undefined) | – | 10.2
Oc1ccccc1CN1CCCNCCC[NH2+]CCC1 | – | 6.64
CC(C)N(C(C)C)C(C)C | – | 11.9
CC(=N\O)/C(CN(C)C)=N\O | 10.6 | 8.4
Cc1ncnc2nccnc12 | – | 2.92
CCOc1ccc2[nH]c(C(C)C)nc2c1 | – | 6.17
NC(=O)CCCCc1ccccn1 | – | 5.73
CCCCNc1ncnc2c1cnn2C | – | 4.22
NC(=O)c1c2cccc1COCCOCc1ncc([nH]1)COCCOC2 | – | 5.72

SMILES | pKa (acidic group) | pKa (basic group)
CNc1cc[n+](O)cc1 | 3.85 | –
FC(F)(F)c1ncnc2nc[nH]c12 | 7.35 | –
CN(C)c1ccc(C=O)cc1 | – | 1.6
O=C([O-])C(NCCNC(C(=O)[O-])c1ccccc1[O-])c1ccccc1[O-] (centres undefined) | – | 11.7
N#CC(C#N)=NNc1ccccc1Br | 6.35 | -0.8
CC1=C(CC(C)NCC(O)c2ccc(Br)cc2)CCC1(C)C (centres undefined) | – | 8.57
CCCCB(O)O | 10.7 | –
Cc1ccn(C)c2nc3ccccc3c1-2 | – | 8.35
CC(=O)c1ccccc1N | – | 2.31
CCS[C@@H]1C(O)C2CC(=O)CC1N2C (some centres undefined) | – | 4.9 and 5.4
CC(C)(C)OOCCC(=O)O | 4.36 | –
Cc1ccc(C)nn1 | – | 3.99
CC(C#N)CN (centres undefined) | – | 7.75
[O-][n+]1cccc2ccccc21 | – | 0.7
C[n+]1cc(S)cc2ccccc21 | 2.4 | –
NNC=O | – | 2.81
CC(=N\O)/C(C)=N/O | 10.6 | –
Cc1nc(N)cc(O)[nH+]1 | 1.7 | –
O=C(O)C[N+](=O)[O-] | 1.63 | –
Oc1cccc2nnccc12 | 7.4 | 1.92
CC(C)(O)C(C(=O)O)c1ccc(C2CCCCC2)cc1 (centres undefined) | 3.76 | –
O=C(O)c1cccc[n+]1[O-] | 3.54 | –
N[C@@H]1CCCC[C@@H]1[NH3+] | – | 6.35
CC(C)(C)N | – | 10.7
Cc1cc(CO)c(O)c(CO)c1 | 9.92 | –

SMILES | pKa (acidic group) | pKa (basic group)
CC(C)C(N)C(C)C | – | 10.4
Cc1cc(N)nc2ccc3ccccc3c12 | – | 7.14
CC1([NH3+])C[C@]1(C)N (some centres undefined) | – | 5.94
Cc1ccc2c(c1)ncn2[C@H]1OC[C@H](O)[C@@H](O)[C@@H]1O | – | 4.17
CC(=O)CCCCN(C)C | – | 9.66
O=C1CC2OCC=C3C4CC5N(CCC56c5ccccc5N1C6C24)[C@H]3S(=O)(=O)[O-] (some centres undefined) | – | 3.2
NS(=O)(=O)c1ccc(C(=O)O)cc1 | 3.53 | –
CCN(CC)CC(=N\O)/C(C)=N/O | 10.7 | –
CN(C)c1ccncn1 | – | 6.35
NC1=[NH+][C@H](C(=O)O)[C@@H]([C@H](O)C[NH3+])N1 | 2.4 | –
O=[N+]([O-])c1ccc(NC=S)cc1 | 10.1 | –
Nc1cccc2ccncc12 | – | 6.06
COc1ccccc1/C(=N/CCC[NH+](C)C)c1ccccc1 | – | 4.62
CC/C=C/Cc1nc(C(=O)[O-])cn1[C@H](C(=O)[O-])C(C)(C)S | 10.2 | 6.4
Nc1c(C(=O)[O-])ncn1[C@H]1O[C@@H](CO)[C@H](O)[C@@H]1O | – | 5.9
CC(C)CN(C)c1ccccc1 | – | 5.2
C[C@@H]1CC[C@@H]2CC[C@H](C)N21 | – | 10.2
CCC(C)(N)C(=O)[O-] (centres undefined) | – | 9.98
CC(=O)c1ccccn1 | – | -0.46
CCC1C(=O)C=C(C)OC1=O (centres undefined) | 5.3 | –
CCC(C)(CC)Nc1ccccc1 | – | 6.32
[O-]c1ccc([O-])nn1 | – | 13
Cc1[nH]nc(O)c1C(C)C | – | 3
c1ccc(-c2ccc(NCC[NH+]3CCOCC3)nn2)cc1 | – | 3.74
CCCCCOc1ccc(O)cc1 | 10.2 | –

SMILES | pKa (acidic group) | pKa (basic group)
CNc1nccn2cc(-c3ccc(S(C)=O)cc3OC)nc12 (centres undefined) | – | 5.36
NC(C[NH3+])C[NH3+] | – | 3.72
CN[C@H]1C(C)[C@@H]1NC (some centres undefined) | – | 9.03
Cc1cc(C(=O)O)ccc1O | 4.68 | –
[O-][n+]1c2ccccc2[n+](O)c2ccccc21 | -1.62 | –
NC(=S)Nc1ccc(Br)cc1 | 12.3 | –
O=C(O)CCC(=O)NOCc1ccccc1 | 4.6 | –
Cc1cc([N+](=O)[O-])cc(C)c1O | 7.22 | –
Cc1ccc(-c2cnc(-c3ccc(C)cc3)o2)cc1 | – | 1.12
COc1ccc2c3c1O[C@H]1CCC[C@H]4[C@H](NCC[C@]314)[C@@H]2O | – | 9.17
Nc1cnc2ccccc2n1 | – | 3.93
NC(=O)CCCCCCCCC(=O)NO | 9.49 | –
COc1ccc(-c2nc3cnccc3[nH]2)c(OC)c1 | – | 6.49
Cc1nc(N)c2cnn(-c3ccccc3)c2n1 | – | 4.52
N[C@@H](Cc1nc[nH]c1I)C(=O)[O-] | 12.4 | 8.62
CCOc1ccc2nc3cc([N+](=O)[O-])ccc3c(N)c2c1 | – | 7.5
Cc1cc([S-])[nH+]cn1 | – | 1.8
CN(C)c1ccc(NC(=O)/C=N/O)cc1 | 9.26 | 4.94
COc1ccccc1C(=O)NO | 8.9 | –
